Paper PMC7795425, “Synthesis and Biological Activity of Brassinosteroid Analogues with a Nitrogen-Containing Side Chain” (International Journal of Molecular Sciences, 2020)
“Also recorded” adds a separate entry of the source. Structures can show the parent of a compound that is named as a salt.

How the values were obtained:
[1] = Calcein AM cytotoxicity assay, MCF7; format: cell-based; settings: human, MCF7 breast carcinoma cells (estrogen-sensitive), MCF7, 72 h, IC50 > 50 µM means inactive, read-out: Cytotoxic activity IC50
Procedure: (§1) The effect of the prepared BRs derivatives on the viability (in Calcein AM assays) of BJ human fibroblasts (as an example of a “normal” cell line) and human cancer cell lines of various histopathological origins, including: T-lymphoblastic leukemia CEM, breast carcinoma MCF7 and cervical carcinoma cell line HeLa, was also studied. Cells of all these lines were exposed to six 3-fold dilutions of each drug for 72 h prior to determination of cell survival. The IC50 (concentration leading to 50% inhibition of viability) values obtained from the Calcein AM cytotoxicity assay were calculated. […] All tested BR nitrogen-containing derivatives had no detectable activity, even when tested in concentrations of up to 50 µM.
(§2) The screening cell lines: T-lymphoblastic leukemia CEM; breast carcinoma MCF7 (estrogen-sensitive); cervical carcinoma cell line HeLa; and human foreskin fibroblasts BJ, were obtained from the American Type Culture Collection (Manassas, VA, USA). Cells were cultured in DMEM (Dulbecco’s Modified Eagle Medium, Sigma, St. Louis, MO, USA). Media used were supplemented with 10% fetal bovine serum, 2mM L-glutamine and 1% penicillin–streptomycin. The cell lines were maintained under standard cell culture conditions at 37 °C and 5% CO2 in a humid environment.
(§3) Cells were subcultured twice or three times a week using the standard trypsinization procedure. Cytotoxicity in cancer cell lines after 72 h was determined as described earlier. Control cultures were treated with DMSO alone, and the final concentration of DMSO in the mixture never exceeded 0.6%. Six serial 3-fold dilutions of the test substances were added at time zero in 20 μL aliquots to the microtiter plate wells and the highest final concentration in the wells was 50 μM.
(§4) Table S3: Cytotoxic activities, IC50 (µM/L)a, of compounds in three tumor and one normal fibroblast
(§5) Compound CEM MCF7 HeLa BJ
(§6) a The lowest concentration that kills 50% of cells.
(§7) b Increase of cell proliferation.

[2] = tested on: Arabidopsis thaliana L. (Columbia ecotype, Col-0) seedlings; experiment: Arabidopsis root sensitivity bioassay; format: in vivo; settings: for root length, mean: 7-day-old seedlings; for elongation of roots (growth-promoting activity) compared to the control: low concentrations (0.1 and 1 nM)
Procedure: Several bioassays such as the first bean internode, root growth and rice lamina inclination have been developed to evaluate the growth-promoting activity of BR derivatives. In this work, the activity of new BR analogues was evaluated using the Arabidopsis root sensitivity test because of its simplicity and high sensitivity for BRs.. The characteristic effect of exogenously applied BRs on light-grown Arabidopsis is dose-dependent—BRs in higher concentrations cause inhibition of root growth; vice versa, low concentrations are stimulating. The results obtained for 24-epiBL, which was used as a positive control, and the BR derivatives are shown in Figure 2, Figure 3 and Figure S21. […] A similar trend was shown for dimethylammonium hydrochloride 22a and morpholinium hydrochloride 22e with a long side chain. For numerical values of the average, SD and p-value, see Table S2.
The biological activity of the new BRs derivatives was tested by an Arabidopsis sensitivity bioassay which was performed according to [28]. Briefly, seedlings of Arabidopsis thaliana L. (Columbia ecotype, Col-0) were stratified for 2 days at 4 °C and germinated on vertical half-strength Murashige and Skoog (1% w/v sucrose) agar at 22 °C in a 16 h/8 h light–dark cycle. The plates contained concentrations of 24-epiBL (as positive control) and BR derivatives ranging from 0.1 to 10 nM, respectively 100 nM (for selected derivatives only). After 7 days, roots were straightened on solid media plates and scanned with an Epson high-resolution scanner. The entire root length was measured with ImageJ (http://rsbweb.nih.gov/ij/). For each treatment, more than 15 seedlings were analyzed in two biological repeats, and p-values were calculated with the two-tailed Student t-test using Excel software.
(§8) Figure 2 Effect of selected brassinosteroid derivatives on the inhibition of Arabidopsis root length. Seven-day-old Arabidopsis thaliana seedlings (Columbia ecotype, Col-0) were treated with DMSO as control/24epiBL/BR short side chain derivatives; (A)—amides, (B)—amines, (C)—ammonium hydrochlorides. For each treatment, more than 15 seedlings were analyzed in two biological repeats. Error bars represent SD. Asterisks represent significant changes (t-test); * represents p-value < 0.05, in comparison to control.
as §8, with “Figure 3” for “Figure 2”, “control/24epiBL/BR long” for “control/24epiBL/BR short”, “(A)—amides, (B)—ammonium” for “(A)—amides, (B)—amines, (C)—ammonium”
Table S2: Data for figure 2, 3, and S21. P value <0.05(t-test), comparison to control.
control (mean ± SD) 16.3 ± 1.21
*only selected compounds were tested
mean(mm) SD t-test mean (mm) SD t-test mean (mm) SD t-test mean (mm) SD t-test
(1 picture or pasted object on this page, not shown here)

[3] = Calcein AM cytotoxicity assay, BJ; format: cell-based; settings: human, BJ foreskin fibroblasts (normal cell line), IC50 > 50 µM means inactive, read-out: Cytotoxic activity IC50
Procedure: as §1, §2, §3, §4, §5, §6, §7

[4] = Calcein AM cytotoxicity assay, CEM; format: cell-based; settings: human, CEM T-lymphoblastic leukemia cells, IC50 > 50 µM means inactive, read-out: Cytotoxic activity IC50
Procedure: as §1, §2, §3, §4, §5, §6, §7

[5] = Calcein AM cytotoxicity assay, HeLa; format: cell-based; settings: human, HeLa cervical carcinoma cells, IC50 > 50 µM means inactive, read-out: Cytotoxic activity IC50
Procedure: as §1, §2, §3, §4, §5, §6, §7

[6] = 100 nM (only selected compounds), control 14.61 ± 0.85

Structure (SMILES)	melting point	IC50 at 72 h [1] [µM]	root length, mean ([2]; 0.1 nM, control 16.3 ± 1.21) [mm]	root length, mean ([2]; 1 nM, control 16.3 ± 1.21) [mm]	root length, mean ([2]; 10 nM, control 16.3 ± 1.21) [mm]	root length, mean [2, 6] [mm]	elongation of roots (growth-promoting activity) compared to the control [2]	inhibitory effect on Arabidopsis root growth ([2]; tested 0.1 to 10 nM, selected derivatives also 100 nM)	IC50 at 72 h [3] [µM]	IC50 at 72 h [4] [µM]	IC50 at 72 h [5] [µM]	concentration inhibiting Arabidopsis root growth ([2]; light-grown seedlings, positive control) [nM]
C[C@H](CN(C)C)[C@H]1CCC2C3CC(=O)[C@H]4C[C@H](O)[C@H](O)C[C@]4(C)C3CC[C@@]21C (stereo partly drawn) (as salt: chloride) [16a, N,N-dimethyl-((20S)-2α,3α-dihydroxy-6-oxo-5α-pregnane-20-methyl)aminium chloride]	> 290 °C (dec.)	–	–	–	–	–	–	–	–	–	–	–
CCN(CC)C[C@@H](C)[C@H]1CCC2C3CC(=O)[C@H]4C[C@H](O)[C@H](O)C[C@]4(C)C3CC[C@@]21C (stereo partly drawn) (as salt: chloride) [16b, N,N-diethyl-((20S)-2α,3α-dihydroxy-6-oxo-5α-pregnane-20-methyl)aminium chloride]	> 270 °C (dec.)	–	–	–	–	–	–	–	–	–	–	–
C[C@H](CN1CCCC1)[C@H]1CCC2C3CC(=O)[C@H]4C[C@H](O)[C@H](O)C[C@]4(C)C3CC[C@@]21C (stereo partly drawn) (as salt: chloride) [16c, 1-((20S)-2α,3α-dihydroxy-6-oxo-5α-pregnane-20-methyl)pyrrolidin-1-ium chloride]	> 260 °C (dec.)	–	–	–	–	–	–	–	–	–	–	–
C[C@H](CN1CCCCC1)[C@H]1CCC2C3CC(=O)[C@H]4C[C@H](O)[C@H](O)C[C@]4(C)C3CC[C@@]21C (stereo partly drawn) (as salt: chloride) [16d, 1-((20S)-2α,3α-dihydroxy-6-oxo-5α-pregnane-20-methyl)piperidin-1-ium chloride]	> 280 °C (dec.)	–	–	–	–	–	–	–	–	–	–	–
C[C@H](CN1CCOCC1)[C@H]1CCC2C3CC(=O)[C@H]4C[C@H](O)[C@H](O)C[C@]4(C)C3CC[C@@]21C (stereo partly drawn) (as salt: chloride) [16e, 4-((20S)-2α,3α-dihydroxy-6-oxo-5α-pregnane-20-methyl)morpholin-4-ium chloride]	> 240 °C (dec.)	–	–	–	–	–	–	–	–	–	–	–
C[C@H](C(=O)N(C)C)[C@H]1CC[C@H]2[C@@H]3CC(=O)[C@H]4C[C@H](O)[C@H](O)C[C@]4(C)[C@H]3CC[C@]12C [8a, N,N-dimethyl-(20S)-2α,3α-dihydroxy-6-oxo-5α-pregnane-20-carboxamide]	> 230 °C (dec.)	> 50	16.12	18.41	16.46	13.329	slight elongation of roots; also recorded: interesting growth-promoting activity	weak inhibition up to the highest tested concentration of 100 nM	> 50	> 50	> 50	–
CCN(CC)C(=O)[C@@H](C)[C@H]1CC[C@H]2[C@@H]3CC(=O)[C@H]4C[C@H](O)[C@H](O)C[C@]4(C)[C@H]3CC[C@]12C [8b, N,N-diethyl-(20S)-2α,3α-dihydroxy-6-oxo-5α-pregnane-20-carboxamide]	> 200 °C (dec.)	> 50	18.41	15.15	16.95	13.836	slight elongation of roots; also recorded: interesting growth-promoting activity	–	> 50	> 50	> 50	–
C[C@H](CN(C)C)[C@H]1CCC2C3CC(=O)[C@H]4C[C@H](O)[C@H](O)C[C@]4(C)C3CC[C@@]21C (stereo partly drawn) [16a, N,N-dimethyl-((20S)-2α,3α-dihydroxy-6-oxo-5α-pregnane-20-methyl)aminium chloride]	–	> 50	18.91	15.64	15.32	13.626	–	–	> 50	> 50	> 50	–
CCN(CC)C[C@@H](C)[C@H]1CCC2C3CC(=O)[C@H]4C[C@H](O)[C@H](O)C[C@]4(C)C3CC[C@@]21C (stereo partly drawn) [16b, N,N-diethyl-((20S)-2α,3α-dihydroxy-6-oxo-5α-pregnane-20-methyl)aminium chloride]	–	> 50	17.27	17.61	16.13	–	–	–	> 50	> 50	> 50	–
C[C@H](CN1CCCC1)[C@H]1CCC2C3CC(=O)[C@H]4C[C@H](O)[C@H](O)C[C@]4(C)C3CC[C@@]21C (stereo partly drawn) [16c, 1-((20S)-2α,3α-dihydroxy-6-oxo-5α-pregnane-20-methyl)pyrrolidin-1-ium chloride]	–	> 50	15.97	14.99	15.16	–	–	–	> 50	> 50	> 50	–
C[C@H](CN1CCCCC1)[C@H]1CCC2C3CC(=O)[C@H]4C[C@H](O)[C@H](O)C[C@]4(C)C3CC[C@@]21C (stereo partly drawn) [16d, 1-((20S)-2α,3α-dihydroxy-6-oxo-5α-pregnane-20-methyl)piperidin-1-ium chloride]	–	> 50	15.32	15.65	17.61	–	–	–	> 50	> 50	> 50	–
C[C@H](CN1CCOCC1)[C@H]1CCC2C3CC(=O)[C@H]4C[C@H](O)[C@H](O)C[C@]4(C)C3CC[C@@]21C (stereo partly drawn) [16e, 4-((20S)-2α,3α-dihydroxy-6-oxo-5α-pregnane-20-methyl)morpholin-4-ium chloride]	–	> 50	17.21	17.61	16.13	13.771	slight elongation of roots; also recorded: interesting growth-promoting activity	–	> 50	> 50	> 50	–
CC(C)[C@@H](C)[C@@H](O)[C@H](O)[C@@H](C)[C@H]1CC[C@H]2[C@@H]3COC(=O)[C@H]4C[C@H](O)[C@H](O)C[C@]4(C)[C@H]3CC[C@]12C [24-epiBL, 24-epibrassinolide, reference compound]	–	–	15.811	13.855	7.342	6.685	–	–	–	–	–	≥ 1
